Results from publication PMC9301721 (ACS Omega, 2022).

B1: 14-3-3εΔC (aa 1-232) (domain or fragment, human, UniProt P62258 1-232, looked up)
chain: MDDREDLVYQAKLAEQAERYDEMVESMKKVAGMDVELTVEERNLLSVAYKNVIGARRASWRIISSIEQKEENKGGEDKLKMIREYRQMVETELKLICCDILDVLDKHLIPAANTGESKVFYYKMKGDYHRYLAEFATGNDRKEAAENSLVAYKAASDIAMTELPPTHPIRLGLALNFSVFYYEILNSPDRACRLAKAAFDDAIAELDTLSEESYKDSTLIMQLLRDNLTLWT

Experiments:
[1] = test system: 14-3-3ε and FOXO3a interaction; conditions: cells expressing the 9J10 probe; cited from earlier work
14-3-3ε = conditions: pull-down and mass spectrometry; cited from earlier work
crystal structure = molecular target: the molecule itself; test: crystal structure

| Molecule | Interaction between 14-3-3ε and FOXO3a in cells expressing the probe [1] | 14-3-3 proteins interacting with probe (pull-down, MS) (14-3-3ε) | binding result (crystal structure) |
| --- | --- | --- | --- |
| LNTRPGRRRNpSN [9J10] | sharp reduction in the interaction between 14-3-3ε and FOXO3a | 14-3-3ε is one among the abundant 14-3-3 proteins interacting with 9J10 |  |
| B1 |  |  | binds |
